Measured values as given in patent US20220227796A1, “EGFR INHIBITORS, COMPOSITIONS AND METHODS THERE OF” (Betta Pharmaceuticals Co., Ltd., priority 2019, published 2022).
Structures can show the parent of a compound that is named as a salt.

Legend:
HCC827(Δ19del) = assay: HCC827 cells proliferation assay; type: cell-based; details: Homo sapiens, HCC827; cell proliferation, 72 h, CellTiter Glo; class symbols; read-out: HCC827 IC50
Experimental: (§1) Test 3 H1975 and HCC827 Cells Proliferation Assay
(§2) a) The medium was preheated in a 37° C. water bath in advance.
(§3) b) Remove the cryogenic vials from the liquid nitrogen tank, quickly put it into a 37° C. water bath, and completely melt it in 1 min.
(§4) c) Transfer the cell suspension to a 15 mL centrifuge tube containing 8 mL medium, centrifuge 1000 rpm, 5 min.
(§5) d) Discard the supernatant, resuspend the cells in 1 mL medium, and transfer to a 75 cm^2 flask containing 15 mL medium, culture the cells in an incubator at 37° C., 5% CO2.
(§6) b) Collect cell to a 15 mL centrifuged tube, centrifuge at 1000 rpm for 5 min. Discard the supernatant, count, and make the cell density at 1×10^4 cells/mL, then place it in a 37° C., 5% CO2 incubator.
(§7) b) The above compound solution was diluted 1:20 times with culture medium to prepare a 10 fold working solution;
(§8) a) Take cells in log phase growth, centrifuge at 1000 rpm for 5 min, then resuspend the cells with culture medium, then count cells;
(§9) b) Cells were seeded to 96-well cell culture plate with density at 2000 cells/well (suitable for H1975 cell) and at 2500 cells/well (suitable for HCC827 cell);
(§10) The blank control well was a culture medium (0.5% DMSO);
(§11) b) The cells were incubated for an additional 72 h in the incubator.
(§12) a) Remove the 96-well cell culture plate and add 50 μl of CTG reagent (CellTiter Glo kit, promega, Cat #G7573).
(§13) b) Plate was shaked for 2 min and then let it cool for 10 min at room temperature.
(§14) c) The Luminescence signal value was read using a PerkinElmer reader.
(§15) Experimental Data Analysis
(§16) Data were analyzed using GraphPad Prism 6.0 software to obtain a fitted curve of compound activity.
(§17) Y=Bottom+(Top−Bottom)/(1+10^((Log IC50−X)*HillSlope));
(§18) The cells proliferation assay results are expressed with IC50, shown as Table 2.

Ba/F3-Δ19del/T790M/C797S = Ba/F3-Δ19del/T790M/C797S (Homo sapiens, UniProt P00533, T790M/C797S, cells depend on it, form not given); assay: Ba/F3-Δ19del/T790M/C797S cells proliferation assay; type: cell-based; details: cell proliferation, 72 h, CellTiter Glo; class symbols; read-out: BaF3 Δ 19del/T790M/C797S IC50
Sequence of Ba/F3-Δ19del/T790M/C797S (P00533 with tags, fused parts or gaps DEL746-750/T790M/C797S, form open): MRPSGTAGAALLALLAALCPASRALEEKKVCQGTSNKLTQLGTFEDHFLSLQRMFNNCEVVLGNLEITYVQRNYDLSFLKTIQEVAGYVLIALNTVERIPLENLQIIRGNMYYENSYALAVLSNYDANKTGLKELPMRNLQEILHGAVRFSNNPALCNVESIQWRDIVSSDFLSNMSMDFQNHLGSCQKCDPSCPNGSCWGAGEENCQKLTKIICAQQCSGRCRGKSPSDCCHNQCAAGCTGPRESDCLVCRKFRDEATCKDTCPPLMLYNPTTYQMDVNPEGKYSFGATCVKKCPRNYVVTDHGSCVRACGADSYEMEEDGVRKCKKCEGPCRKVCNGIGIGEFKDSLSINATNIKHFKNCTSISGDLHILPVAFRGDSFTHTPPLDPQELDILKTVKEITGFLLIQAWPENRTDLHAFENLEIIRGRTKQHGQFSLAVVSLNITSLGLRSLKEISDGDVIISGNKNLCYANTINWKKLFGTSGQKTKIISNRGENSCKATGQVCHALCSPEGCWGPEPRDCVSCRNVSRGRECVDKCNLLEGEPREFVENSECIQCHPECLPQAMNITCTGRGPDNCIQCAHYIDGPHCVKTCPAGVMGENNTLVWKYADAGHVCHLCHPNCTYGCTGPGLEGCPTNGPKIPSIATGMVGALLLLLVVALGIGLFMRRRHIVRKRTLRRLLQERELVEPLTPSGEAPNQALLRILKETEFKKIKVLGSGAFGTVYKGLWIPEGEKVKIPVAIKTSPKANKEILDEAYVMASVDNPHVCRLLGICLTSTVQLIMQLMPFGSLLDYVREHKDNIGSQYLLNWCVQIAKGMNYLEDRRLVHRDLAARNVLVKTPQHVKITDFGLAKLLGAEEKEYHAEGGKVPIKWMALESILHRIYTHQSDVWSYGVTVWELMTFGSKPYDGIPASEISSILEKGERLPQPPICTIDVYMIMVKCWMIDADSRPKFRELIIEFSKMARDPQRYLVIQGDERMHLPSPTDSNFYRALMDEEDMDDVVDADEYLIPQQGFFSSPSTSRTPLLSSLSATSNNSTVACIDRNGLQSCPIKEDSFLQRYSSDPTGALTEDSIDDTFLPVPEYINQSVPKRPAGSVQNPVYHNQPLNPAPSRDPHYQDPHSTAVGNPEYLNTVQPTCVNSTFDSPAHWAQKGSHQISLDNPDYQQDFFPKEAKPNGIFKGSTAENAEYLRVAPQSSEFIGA
Experimental: (§19) a) The medium was preheated in a 37 water bath in advance.
as §3
(§20) c) Transfer the cell suspension to a 15 mL centrifuge tube containing 8 mL medium, centrifuge 1000 rpm, 5 min,
as §5
(§21) a) The medium was preheated in a 37° C.; water bath in advance.
as §6, §7, §8
(§22) b) Cells were seeded to 96-well cell culture plate with density at 2000 cells/well;
as §10, §11, §12, §13, §14, §15, §16
(§23) Y=Bottom+(Top−Bottom)/(1+10^((Log IC50−X)*Hill Slope));
as §18

EGFR Δ19del/T790M/C797S = EGFR Δ19del/T790M/C797S (Homo sapiens, UniProt P00533, T790M/C797S, form not given); assay: Kinase assay (mobility shift) for EGFR Δ19del/T790M/C797S; type: biochemical; details: read-out: EGFR Δ 19del/T790M/C797S IC50
Sequence of EGFR Δ19del/T790M/C797S (P00533 with tags, fused parts or gaps DEL746-750/T790M/C797S, form open): as above
Experimental: (§24) Enzyme reaction protocol are as followed:
(§25) 1. Preparing 1* Kinase buffer as followed.
(§26) 2. Preparing Compound Concentration Gradient: Compounds were tested at a concentration of 300 nM, diluted to 100-fold final concentration in 100% DMSO solution in 96-well plates, and compounds were diluted 3 times with Precision, 10 concentrations. Each concentration of the compound was then further diluted to a 5-fold final concentration of the intermediate dilution solution using 1* Kinase buffer.
(§27) 3. 5 μL of each of the prepared intermediate dilution compounds was separately added to the compound wells of the 384-well plate, and each concentration was tested for duplicate wells; 5 μL of 5% DMSO was added to the negative control wells and the positive control wells, respectively.
(§28) 4. 2.5-fold final concentration of the kinase solution was prepared using 1*Kinase buffer.
(§29) 6. Centrifuge at 1000 rpm for 30 seconds, shake the reaction plate and incubate for 10 minutes at room temperature.
(§30) 8. 10 μL of a 2.5-fold final concentration of a mixed solution of ATP and a substrate was added to initiate the reaction.
(§31) 9. Centrifuge the 384-well plate at 1000 rpm for 30 seconds, mix by shaking, and incubate at room temperature for the corresponding time.
(§32) 10. Add 30 μL of the stop solution to stop the kinase reaction, centrifuge at 1000 rpm for 30 seconds, and mix by shaking.
(§33) 11. Read the conversion rate with Caliper EZ Reader.
(§34) Convert conversion values to inhibition values:
(§35) Percent inhibition=(max−conversion % sample)/(max−min)*100.
(§36) “max” stands for the mean value of the positive control well ratio; “min” stands for the mean value of the negative control well; conversion % sample: sample conversion reading.
(§37) Fit the data in log(inhibitor) vs. response Variable slope of GraphPad Prism 5 to obtain IC50 values.
(§38) Equation used is: Y=Bottom+(Top−Bottom)/(1+(IC50/X)*HillSlope)

H1975(L858R/T790M) = assay: H1975 cells proliferation assay; type: cell-based; details: Homo sapiens, NCI-H1975; cell proliferation, 72 h, CellTiter Glo; class symbols; read-out: H1975 IC50
Experimental: as §1, §2, §3, §4, §5, §6, §7, §8, §9, §10, §11, §12, §13, §14, §15, §16, §17, §18

Ba/F3-L858R/T790M/C797S = target: T1, Ba/F3-L858R/T790M/C797S (Homo sapiens, UniProt P00533, T790M/C797S/L858R, cells depend on it); assay: Ba/F3-L858R/T790M/C797S cells proliferation assay; type: cell-based; details: cell proliferation, 72 h, CellTiter Glo; class symbols; read-out: BaF3 L858R/T790M/C797S IC50
T1 construct: BaF3 L858R/T790M/C797S IC50; other: cell proliferation, 72 h, CellTiter Glo; class symbols; numeric values
Experimental: as §19, §3, §20, §5, §21, §6, §7, §8, §22, §10, §11, §12, §13, §14, §15, §16, §23, §18

EGFR L858R = EGFR L858R (Homo sapiens, UniProt P00533, L858R); assay: Kinase assay (mobility shift) for EGFR L858R; type: biochemical
Sequence of EGFR L858R (P00533 25-1210 L858R): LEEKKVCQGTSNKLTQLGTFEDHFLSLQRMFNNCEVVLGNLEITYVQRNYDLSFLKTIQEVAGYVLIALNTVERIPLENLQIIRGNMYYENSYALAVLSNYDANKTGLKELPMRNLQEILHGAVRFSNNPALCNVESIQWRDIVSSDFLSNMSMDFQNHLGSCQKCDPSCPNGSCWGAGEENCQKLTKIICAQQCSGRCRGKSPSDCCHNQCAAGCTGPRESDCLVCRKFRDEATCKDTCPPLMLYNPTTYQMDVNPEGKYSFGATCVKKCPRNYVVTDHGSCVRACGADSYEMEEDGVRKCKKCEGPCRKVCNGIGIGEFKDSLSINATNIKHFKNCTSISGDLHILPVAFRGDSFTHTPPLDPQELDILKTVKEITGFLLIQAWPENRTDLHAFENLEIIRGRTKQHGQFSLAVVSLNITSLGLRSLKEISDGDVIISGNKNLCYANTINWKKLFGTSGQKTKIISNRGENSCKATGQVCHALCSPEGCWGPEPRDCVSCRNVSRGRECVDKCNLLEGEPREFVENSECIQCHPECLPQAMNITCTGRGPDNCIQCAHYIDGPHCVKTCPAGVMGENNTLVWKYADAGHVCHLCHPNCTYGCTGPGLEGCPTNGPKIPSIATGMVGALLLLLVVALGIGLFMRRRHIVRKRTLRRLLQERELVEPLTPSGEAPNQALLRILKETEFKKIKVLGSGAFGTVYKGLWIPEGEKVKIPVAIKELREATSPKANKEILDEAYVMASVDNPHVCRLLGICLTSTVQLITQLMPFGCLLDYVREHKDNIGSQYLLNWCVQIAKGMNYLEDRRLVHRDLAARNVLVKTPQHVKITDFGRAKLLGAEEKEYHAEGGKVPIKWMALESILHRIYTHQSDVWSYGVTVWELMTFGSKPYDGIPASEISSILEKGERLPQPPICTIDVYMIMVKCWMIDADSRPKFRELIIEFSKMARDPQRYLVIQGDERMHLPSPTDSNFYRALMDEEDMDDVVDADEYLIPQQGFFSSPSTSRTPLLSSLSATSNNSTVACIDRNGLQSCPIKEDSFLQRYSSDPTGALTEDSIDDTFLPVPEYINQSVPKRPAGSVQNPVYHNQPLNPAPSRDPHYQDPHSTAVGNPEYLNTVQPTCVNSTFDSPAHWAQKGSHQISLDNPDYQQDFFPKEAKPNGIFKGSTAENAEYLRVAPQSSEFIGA
Experimental: as §24, §25, §26, §27, §28, §29, §30, §31, §32, §33, §34, §35, §36, §37, §38

EGFR T790M/L858R = EGFR T790M/L858R (Homo sapiens, UniProt P00533, L858R/T790M); assay: Kinase assay (mobility shift) for EGFR T790M/L858R; type: biochemical
Sequence of EGFR T790M/L858R (P00533 25-1210 T790M/L858R): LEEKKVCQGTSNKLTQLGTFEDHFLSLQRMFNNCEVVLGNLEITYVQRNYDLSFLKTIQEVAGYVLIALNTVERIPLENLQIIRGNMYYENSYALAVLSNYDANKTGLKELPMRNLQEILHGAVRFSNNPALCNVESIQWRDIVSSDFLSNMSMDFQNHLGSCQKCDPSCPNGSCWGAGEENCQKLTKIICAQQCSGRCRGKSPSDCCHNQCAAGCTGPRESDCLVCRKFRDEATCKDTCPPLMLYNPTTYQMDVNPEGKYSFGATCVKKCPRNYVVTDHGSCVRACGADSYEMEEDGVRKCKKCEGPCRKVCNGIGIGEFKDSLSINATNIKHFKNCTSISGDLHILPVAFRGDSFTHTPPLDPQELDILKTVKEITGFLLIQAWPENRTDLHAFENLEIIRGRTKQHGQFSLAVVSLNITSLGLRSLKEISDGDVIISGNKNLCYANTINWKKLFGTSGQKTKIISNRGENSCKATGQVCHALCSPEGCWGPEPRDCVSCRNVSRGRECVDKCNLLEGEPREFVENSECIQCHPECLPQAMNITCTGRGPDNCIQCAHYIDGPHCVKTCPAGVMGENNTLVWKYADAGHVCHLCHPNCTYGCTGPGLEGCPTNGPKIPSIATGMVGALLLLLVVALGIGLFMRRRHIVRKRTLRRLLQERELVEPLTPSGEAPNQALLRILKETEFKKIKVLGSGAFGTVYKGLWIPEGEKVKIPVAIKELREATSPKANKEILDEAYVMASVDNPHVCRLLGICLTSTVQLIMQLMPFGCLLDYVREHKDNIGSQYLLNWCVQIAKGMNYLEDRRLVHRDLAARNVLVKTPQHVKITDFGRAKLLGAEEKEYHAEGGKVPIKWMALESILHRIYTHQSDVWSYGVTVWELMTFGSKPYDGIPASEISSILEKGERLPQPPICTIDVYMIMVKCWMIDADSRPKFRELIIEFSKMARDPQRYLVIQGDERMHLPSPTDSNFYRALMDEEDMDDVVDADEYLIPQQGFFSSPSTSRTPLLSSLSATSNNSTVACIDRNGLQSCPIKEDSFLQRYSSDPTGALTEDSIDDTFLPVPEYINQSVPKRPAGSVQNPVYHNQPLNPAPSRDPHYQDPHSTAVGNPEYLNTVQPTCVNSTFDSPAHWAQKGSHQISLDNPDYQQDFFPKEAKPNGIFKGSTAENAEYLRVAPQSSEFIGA
Experimental: as §24, §25, §26, §27, §28, §29, §30, §31, §32, §33, §34, §35, §36, §37, §38

Row | Structure (SMILES) | IC50 (HCC827(Δ19del)) [nM] | GI50 (Ba/F3-Δ19del/T790M/C797S) [nM] | IC50 (EGFR Δ19del/T790M/C797S) [nM] | IC50 (H1975(L858R/T790M)) [nM] | GI50 (Ba/F3-L858R/T790M/C797S) [nM] | IC50 (EGFR L858R) [nM] | IC50 (EGFR T790M/L858R) [nM]
1 | C=CC(=O)Nc1cc(Nc2ncc(Cl)c(Nc3ccc4ccccc4c3P(C)(C)=O)n2)ccc1N1CCC2(CC1)CC(N(C)C)C2 [Compound 23, N-(5-((5-chloro-4-((1-(dimethylphosphoryl)naphthalen-2-yl)amino)pyrimidin-2-yl)amino)-2-(2-(dimethylamino)-7-azaspiro[3.5]nonan-7-yl)phenyl)acrylamide hydrochloric acid salt] | 10 to 50 | < 10 | < 10 | 10 to 50 | < 10 |  | 
2 | C=CC(=O)Nc1cc(Nc2ncc(Cl)c(Nc3ccccc3P(C)(C)=O)n2)ccc1N(C)CCN1CCCC1 [Compound 18, N-(5-((5-chloro-4-((2-(dimethylphosphoryl)phenyl)amino)pyrimidin-2-yl)amino)-2-(methyl(2-(pyrrolidin-1-yl)ethyl)amino)phenyl)acrylamide] | < 10 | 10 to 50 | < 10 | < 10 | 10 to 50 | < 10 | < 10
3 | C=CC(=O)Nc1cc(Nc2ncc(Cl)c(Nc3ccc4ncccc4c3P(C)(C)=O)n2)ccc1N1CCC2(CC1)CC(N(C)C)C2 [Compound 30, N-(5-((5-chloro-4-((5-(dimethylphosphoryl)quinolin-6-yl)amino)pyrimidin-2-yl)amino)-2-(2-(dimethylamino)-7-azaspiro[3.5]nonan-7-yl)phenyl)acrylamide] | 10 to 50 | < 10 | < 10 | 10 to 50 | 10 to 50 |  | 
4 | C=CC(=O)Nc1cc(Nc2ncc(Br)c(Nc3ccc4nccnc4c3P(C)(C)=O)n2)ccc1N1CCC2(CC1)CC(N(C)C)C2 [Compound 35, N-(5-(5-bromo-4-(5-(dimethylphosphoryl)quinoxalin-6-ylamino)pyrimidin-2-ylamino)-2-(2-(dimethylamino)-7-azaspiro[3.5]nonan-7-yl)phenyl)acrylamide] | < 10 | < 10 | < 10 | < 10 | < 10 |  | 
5 | C=CC(=O)Nc1cc(Nc2ncc(Cl)c(Nc3ccccc3P(C)(C)=O)n2)ccc1N(C)CCN(C)C [Compound 15, N-(5-((5-chloro-4-((2-(dimethylphosphoryl)phenyl)amino)pyrimidin-2-yl)amino)-2-((2-(dimethylamino)ethyl)(methyl)amino)phenyl)acrylamide] | < 10 | 10 to 50 | < 10 | < 10 | 10 to 50 | < 10 | < 10
6 | C=CC(=O)Nc1cc(Nc2ncc(Cl)c(Nc3ccccc3P(C)(C)=O)n2)ccc1N1CCC2(CC1)CC(N(C)C)C2 [Compound 36, N-(5-((5-chloro-4-((2-(dimethylphosphoryl)phenyl)amino)pyrimidin-2-yl)amino)-2-(2-(dimethylamino)-7-azaspiro[3.5]nonan-7-yl)phenyl)acrylamide] | < 10 | < 10 | < 10 | < 10 | < 10 | < 10 | < 10
7 | C=CC(=O)Nc1cc(Nc2ncc(Cl)c(Nc3ccc4nccnc4c3P(C)(C)=O)n2)ccc1N1CCC2(CC1)CC(N(C)C)C2 [Compound 10, N-(5-((5-chloro-4-((5-(dimethylphosphoryl)quinoxalin-6-yl)amino)pyrimidin-2-yl)amino)-2-(2-(dimethylamino)-7-azaspiro[3.5]nonan-7-yl)phenyl)acrylamide] | 10 to 50 | < 10 | < 10 | < 10 | < 10 |  | 
8 | CN(C)C/C=C/C(=O)Nc1cc(Nc2ncc(Cl)c(Nc3ccccc3P(C)(C)=O)n2)ccc1N1CCC2(CC1)CC(N(C)C)C2 [Compound 8, (E)-N-(5-((5-chloro-4-((2-(dimethylphosphoryl)phenyl)amino)pyrimidin-2-yl)amino)-2-(2-(dimethylamino)-7-azaspiro[3.5]nonan-7-yl)phenyl)-4-(dimethylamino)but-2-enamide] | 10 to 50 | 10 to 50 | < 10 | 10 to 50 | 10 to 50 |  | 
9 | C=CC(=O)Nc1cc(Nc2ncc(Br)c(Nc3ccc4nccnc4c3P(C)(C)=O)n2)ccc1N(C)CCN(C)C [Compound 34, N-(5-(5-bromo-4-(5-(dimethylphosphoryl)quinoxalin-6-ylamino)pyrimidin-2-ylamino)-2-((2-(dimethylamino)ethyl)(methyl)amino)phenyl)acrylamide] | < 10 | < 10 | < 10 | < 10 | < 10 |  | 
10 | C=CC(=O)Nc1cc(Nc2ncc(Cl)c(Nc3ccccc3P(C)(C)=O)n2)ccc1N1CCC(N2CCN(C)CC2)CC1 [Compound 16, N-(5-((5-chloro-4-((2-(dimethylphosphoryl)phenyl)amino)pyrimidin-2-yl)amino)-2-(4-(4-methylpiperazin-1-yl)piperidin-1-yl)phenyl)acrylamide] | 10 to 50 | 10 to 50 | < 10 | < 10 | 10 to 50 | < 10 | < 10
11 | C=CC(=O)Nc1cc(Nc2ncc(Cl)c(Nc3ccccc3P(C)(C)=O)n2)ccc1N1CCC2(CCC(N(C)C)CC2)CC1 [Compound 1, N-(5-((5-chloro-4-((2-(dimethylphosphoryl)phenyl)amino)pyrimidin-2-yl)amino)-2-(9-(dimethylamino)-3-azaspiro[5.5]undecan-3-yl)phenyl)acrylamide] | < 10 | < 10 | < 10 | < 10 | < 10 | 10 to 100 | < 10
12 | C=CC(=O)Nc1cc(Nc2ncc(Cl)c(Nc3ccccc3P(C)(C)=O)n2)ccc1N1CCN2CCC[C@H]2C1 [Compound 17, (S)—N-(5-((5-chloro-4-((2-(dimethylphosphoryl)phenyl)amino)pyrimidin-2-yl)amino)-2-(hexahydropyrrolo[1,2-a]pyrazin-2(1H)-yl)phenyl)acrylamide] | 10 to 50 | 10 to 50 | < 10 | 10 to 50 | 10 to 50 | < 10 | < 10
